Earlier results, collected in patent publication US20160303264A1, “LIPOSOMES USEFUL FOR NON-INVASIVE IMAGING AND DRUG DELIVERY” (MERRIMACK PHARMACEUTICALS, INC., priority 2013, published 2016).

Conditions: human studies

For `CN=C([S-])N/N=C(C)/C(C)=N/NC([S-])=NC.[64Cu+2]` [^64Cu-ATSM], the “adverse events or clinically detectable pharmacologic effects” value is given as “No adverse events or clinically detectable pharmacologic effects” and the “changes in vital signs or laboratory test results after injection” value is given as “no clinically significant changes”.
